pKi: −log10 of the molar value. Calls of active or inactive are those of the source. The rule behind the calls is not given here.
Tests used:
[1] = target: T1, 5-hydroxytryptamine receptor 1A (Rattus norvegicus, UniProt P19327); assay: In vitro ability to inhibit [3H]-8-OH-DPAT binding to 5-hydroxytryptamine 1A receptor in rat cortical membranes; type: cell membranes
T1 sequence (P19327 whole entry): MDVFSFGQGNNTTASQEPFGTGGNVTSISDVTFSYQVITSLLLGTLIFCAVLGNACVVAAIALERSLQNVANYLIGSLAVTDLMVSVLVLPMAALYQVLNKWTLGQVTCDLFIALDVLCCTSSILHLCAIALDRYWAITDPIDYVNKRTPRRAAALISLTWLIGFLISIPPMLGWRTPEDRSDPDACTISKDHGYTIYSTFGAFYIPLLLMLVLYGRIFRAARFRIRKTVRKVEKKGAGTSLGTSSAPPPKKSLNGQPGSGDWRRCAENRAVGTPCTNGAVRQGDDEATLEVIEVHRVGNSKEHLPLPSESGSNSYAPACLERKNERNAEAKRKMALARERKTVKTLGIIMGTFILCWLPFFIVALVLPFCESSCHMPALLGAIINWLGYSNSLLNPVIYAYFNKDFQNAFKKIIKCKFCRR

D(2) dopamine receptor [2] = target: T2, D(2) dopamine receptor (Homo sapiens, UniProt P14416); assay: In vitro ability to inhibit [3H]raclopride binding to cloned human D2A receptors expressed in mouse fibroblast (LtK-) cells; type: cell-based
T2 sequence (P14416 whole entry): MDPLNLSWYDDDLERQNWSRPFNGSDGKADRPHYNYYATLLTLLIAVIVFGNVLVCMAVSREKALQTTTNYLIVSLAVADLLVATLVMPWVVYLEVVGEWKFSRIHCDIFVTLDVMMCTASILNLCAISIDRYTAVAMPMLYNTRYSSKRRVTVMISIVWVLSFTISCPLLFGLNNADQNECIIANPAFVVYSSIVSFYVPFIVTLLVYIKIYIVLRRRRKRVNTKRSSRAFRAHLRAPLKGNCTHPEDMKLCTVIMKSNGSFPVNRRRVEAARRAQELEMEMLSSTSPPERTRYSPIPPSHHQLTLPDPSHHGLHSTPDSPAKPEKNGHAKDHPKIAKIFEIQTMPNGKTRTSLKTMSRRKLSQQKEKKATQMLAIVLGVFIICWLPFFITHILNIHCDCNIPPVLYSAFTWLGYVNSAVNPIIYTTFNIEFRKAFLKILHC

D(2) dopamine receptor [3] = target: T2, D(2) dopamine receptor; assay: Agonist activity against human D2A receptor; Active; type: functional

CCCN(CCC)C1COc2c(cccc2-c2ccc(OC)cc2)C1 (stereo not given)
pKi [1]: 8.89

CCCN(CCC)C1COc2c(cccc2C(=O)c2ccccc2)C1 (stereo not given)
pKi (D(2) dopamine receptor [2]): < 6.00
pKi [1]: 8.40

CCCN(CCC)C1COc2cccc(O)c2C1 (stereo not given)
pKi (D(2) dopamine receptor [2]): < 5.52
pKi [1]: 7.08

CCCN(CCC)C1COc2c(O)cccc2C1 (stereo not given)
pKi (D(2) dopamine receptor [2]): 6.89
pKi [1]: < 5.52

CCCN(CCC)C1COc2c(SC)ccc(OC)c2C1 (stereo not given)
Activity (D(2) dopamine receptor [3]): Active

CCCN(CCC)C1COc2c(Br)ccc(OC)c2C1 (stereo not given)
Activity (D(2) dopamine receptor [3]): Active

CCCN(CCC)C1COc2c(cccc2C(=O)c2ccccc2OC)C1 (stereo not given)
pKi (D(2) dopamine receptor [2]): < 6.00
pKi [1]: 7.22

CCCN(CCC)C1COc2c(cccc2-c2ccccc2)C1 (stereo not given)
pKi [1]: 8.96

CCCN(CCC)C1COc2c(cccc2C(=O)c2ccsc2)C1 (stereo not given)
pKi (D(2) dopamine receptor [2]): < 6.00
pKi [1]: 8.14

CCCN(CCC)C1COc2c(cccc2C(=O)c2ccoc2)C1 (stereo not given)
pKi (D(2) dopamine receptor [2]): 5.87
pKi [1]: 7.79

CCCN(CCC)C1COc2c(cccc2-c2ccsc2)C1 (stereo not given)
pKi (D(2) dopamine receptor [2]): 6.40
pKi [1]: 8.96

CCCN(CCC)C1COc2c(cccc2-c2ccoc2)C1 (stereo not given)
pKi (D(2) dopamine receptor [2]): 7.32
pKi [1]: 8.24

CCCN(CCC)C1COc2c(cccc2C(=O)c2ccc(C(C)=O)cc2)C1 (stereo not given)
pKi (D(2) dopamine receptor [2]): < 6.00
pKi [1]: 7.96

CCCN(CCC)C1COc2c(cccc2C(=O)c2ccc(C(F)(F)F)cc2)C1 (stereo not given)
pKi (D(2) dopamine receptor [2]): < 6.00
pKi [1]: 7.33

CCCN(CCC)C1COc2c(cccc2-c2ccc(C(F)(F)F)cc2)C1 (stereo not given)
pKi (D(2) dopamine receptor [2]): 6.12
pKi [1]: 7.20

CCCN(CCC)C1COc2c(cccc2-c2ccccc2OC)C1 (stereo not given)
pKi (D(2) dopamine receptor [2]): < 6.00
pKi [1]: 8.96

CCCN(CCC)C1COc2c(cccc2C(=O)c2ccc(OC)cc2)C1 (stereo not given)
pKi (D(2) dopamine receptor [2]): < 6.00
pKi [1]: 7.98
